In patent US20210198633A1, “METHODS AND COMPOSITIONS COMPRISING TANKYRASE INHIBITORS FOR GENERATING INSULIN PRODUCING CELLS” (UNIVERSITY HEALTH NETWORK, priority 2018, published 2021):
Entries after “also recorded” stand apart in the source; their conditions may differ.

Legend:
Assay type in all cases: cell-based, human
[1] = system: INS^GFP/W reporter line; test: INSULIN:GFP+ cells by fluorescence imaging and flow cytometric analysis after further differentiation; conditions: NE + IWR-1-endo 3 uM or WIKI4 9 uM day 8 to day 13; read day 21/23; compared with XAV939 1.5 uM and MN64 3 uM
Experimental: Cells treated with various tankyrase pathway inhibitors (Cell treated with NE alone or NE in combination with tankyras inhibitors (NE+XAV939 1.5 uM, NE+IWR-1-endo 3 uM, NE+MN64 3 uM, NE+WIKI4 9 uM)) between day 8 and day 13 of differentiation were differentiated for an additional 10 days using a modified version of the differentiation protocol developed by Rezania and Pagliuca (Rezania et al 2014, Pagliuca 2014). Representative bright field and fluorescent images of cellular aggregates are shown at day 23 of differentiation. Results shown are from INS^GFP/W reporter line.
Quantification of the percentage of INSULIN:GFP+ cells measured by flow cytometric analysis at day 23 of differentiation, arising from cells treated or untreated with different compounds: XAV939, IWR-1, MN64, WIKI4. Cells were treated using NE (−) or NE in combination with different compounds: XAV939 1.5 uM, IWR-1 3 uM, MN64 3 uM, WIKI4 9 uM. Results shown are from INS^GFP/W reporter line, Error bars represent standard deviation. n=4.
In this report we present a new method to generate PDX1+/NKX6.1+ endoderm from a variety of hPSC lines. […] (See FIGS. 1-5).

[2] = system: H1 cell line; test: C-Peptide+/NKX6-1+ beta-like cells by flow cytometry at day 23; conditions: treatment day 8 to day 13: WIKI4 9 uM, G007-LK 5 uM, JW74 10 uM, JW55 5 uM
Source text: Flow cytometry analysis for C-Peptide (a surrogate for insulin) and NKX6.1 performed at day 23 of differentiation, showing high percentage of C-peptide+/NKX6-1+ cells (beta-like cells). Numbers in each quadrant indicate the relevant percentage of the total population. Results shown are from H1 cell line.
FIG. 7 show specific tankyrase inhibitors generate high percentages of beta-like cells as measured by C-peptide/NKX6-1 double positive cells using H1 cell line. […] Results shown are from H1 cell line. Error bars represent SEM. n=4 for all, n=1 for JW74.

[3] = system: INS^GFP/W reporter line; test: Insulin transcript by QPCR normalized to TBP; conditions: day 23; WIKI4 9 uM compared to IWR-1 3 uM, MN64 3 uM, XAV939 1.5 uM
Experimental: Cells treated with different tankyrase inhibitors express different amounts of insulin transcript, as measured by QPCR. Shown is the relative expression of insulin transcript normalized to the housekeeping gene TBP (TATA Binding Protein) at day 23 of differentiation, where pancreatic progenitor cells were generated by treating cells with or without XAV939, IWR-1, MN64, WIKI4 (XAV939 1.5 uM, IWR-1 3 uM, MN64 3 uM, WIKI4 9 uM). Adult pancreas is used as positive control. Results shown are from INS^GFP/W reporter line. Error bars represent standard deviation. n=3.

O=C(Nc1cccc2cccnc12)c1ccc(N2C(=O)[C@@H]3[C@H](C2=O)[C@@H]2C=C[C@H]3C2)cc1 [IWR-1]
percentage of INSULIN:GFP+ cells [1]: higher percentages of INSGFP+ cells; also recorded: higher percentages of Insulin:GFP+ cells

CS(=O)(=O)c1ccc(-c2nnc(/C=C/c3nnc(-c4ccc(C#N)cc4)o3)n2-c2ccccc2Cl)nc1 [G007-LK]
percentage of C-Peptide+/NKX6-1+ beta-like cells [2]: able to generate a population of C-peptide+/NKX6.1+ insulin-expressing beta-like cells

COc1ccc(-n2c(SCCCN3C(=O)c4cccc5cccc(c45)C3=O)nnc2-c2ccncc2)cc1 [WIKI4]
percentage of INSULIN:GFP+ cells [1]: higher percentages of INSGFP+ cells; also recorded: higher percentages of Insulin:GFP+ cells | relative expression of insulin transcript (INS mRNA) normalized to TBP [3]: higher levels of INS mRNA | percentage of C-Peptide+/NKX6-1+ beta-like cells [2]: high percentages of C-Peptide+/NKX6-1+ insulin expressing beta-like cells; also recorded: able to generate a population of C-peptide+/NKX6.1+ insulin-expressing beta-like cells

COc1ccc(C2(CNC(=O)c3ccc(NC(=O)c4ccco4)cc3)CCOCC2)cc1 [JW55]
percentage of C-Peptide+/NKX6-1+ beta-like cells [2]: able to generate a population of C-peptide+/NKX6.1+ insulin-expressing beta-like cells

COc1ccc(-n2c(SCc3nc(-c4ccc(C)cc4)no3)nnc2-c2ccncc2)cc1 [JW74]
percentage of C-Peptide+/NKX6-1+ beta-like cells [2]: able to generate a population of C-peptide+/NKX6.1+ insulin-expressing beta-like cells
